≈ marks a conversion by molar mass, not a printed value.
Experiments:
Format in all cases: cell-based
[1] = system: Klebsiella pneumoniae ATCC 700603; experiment: MIC, agar plate incubation (Japan Society for Chemotherapy standard method); conditions: K. pneumoniae ATCC700603, SHV-18, ESBL producing strain, sensitive disc medium, 1000 cfu/spot, read-out: Minimum Inhibitory Concentration (MIC)
Method: (§1) (Test Methods for Compounds (I-1) to (I-9), (I-16), (I-17) and (I-23))
(§2) (Microbe/Strain Species Nos. 1 to 4 and 6 to 8):
(§3) Measurement of Minimum Inhibitory Concentration (MIC: microgram/ml) was conducted according to the standard method of the Japan Society for Chemotherapy, and the amount of bacteria for inoculation was 1000 cfu/spot, and sensitive disc medium was used as the test medium, and conducted using agar plate incubation.

[2] = system: Streptococcus pneumoniae Type I; experiment: as above; conditions: S. pneumoniae Type I, PSSP, sensitive disc medium, 1000 cfu/spot, read-out: Minimum Inhibitory Concentration (MIC)
Method: as §1, §2, §3

[3] = system: Pseudomonas aeruginosa SR24; experiment: as above; conditions: P. aeruginosa SR24, ceftazidime sensitive strain, sensitive disc medium, 1000 cfu/spot, read-out: Minimum Inhibitory Concentration (MIC)
Method: as §1, §2, §3

[4] = system: Pseudomonas aeruginosa SR27060; experiment: as above; conditions: P. aeruginosa SR27060, IMP-1, MBL producing (carbapenem resistant) strain, sensitive disc medium, 1000 cfu/spot, read-out: Minimum Inhibitory Concentration (MIC)
Method: as §1, §2, §3

[5] = system: Streptococcus pneumoniae SR16675; experiment: as above; conditions: S. pneumoniae SR16675, PRSP, sensitive disc medium, 1000 cfu/spot, read-out: Minimum Inhibitory Concentration (MIC)
Method: as §1, §2, §3

[6] = system: Staphylococcus aureus Smith; experiment: as above; conditions: S. aureus Smith, MSSA, sensitive disc medium, 1000 cfu/spot, read-out: Minimum Inhibitory Concentration (MIC)
Method: as §1, §2, §3

[7] = system: Acinetobacter baumannii SR24396; experiment: as above; conditions: A. baumannii SR24396, sensitive disc medium, 1000 cfu/spot, read-out: Minimum Inhibitory Concentration (MIC)
Method: as §1, §2, §3

[8] = system: Stenotrohomonas maltophilia SR21970; experiment: MIC, agar plate incubation (CLSI), Mueller-Hinton agar; conditions: Stenotrophomonas maltophilia, S. maltophilia SR21970, L-1, MBL producing (carbapenem resistant) strain, 10000 cfu/spot, read-out: Minimum Inhibitory Concentration (MIC)
Method: as §1
(Microbe/Strain Species No. 5):
Measurement of Minimum Inhibitory Concentration (MIC, microgram/ml) was conducted according to the CLSI (Clinical and Laboratory Standards Institute) and the amount of bacteria for inoculation was 10000 cfu/spot, and Mueller-Hinton agar medium was used as the test medium, and conducted using agar plate incubation.

[9] = system: Klebsiella pneumoniae ATCC 700603; experiment: MIC, broth microdilution (CLSI), medium with human Apo-transferrin; conditions: K. pneumoniae ATCC700603, SHV-18, ESBL producing strain, cation adjusted Mueller-Hinton + human Apo-transferrin, 5×10^5 cfu/mL, read-out: Minimum Inhibitory Concentration (MIC)
Method: (§4) (Test Methods for Compounds (I-10) to (I-15))
(§5) (Microbe/Strain Species Nos. 1 to 5):
(§6) Measurement of Minimum Inhibitory Concentration (MIC, microgram/ml) was conducted according to the CLSI (Clinical and Laboratory Standards Institute) and the amount of bacteria for inoculation was 5×10^5 cfu/mL, and cation adjusted Mueller-Hinton liquid medium added human Apo-tranferrin was used as the test medium, and conducted using broth microdilution method.
(§7) (Test Methods for Compounds (I-18) to (I-22))

[10] = system: Stenotrohomonas maltophilia SR21970; experiment: as above; conditions: Stenotrophomonas maltophilia, S. maltophilia SR21970, L-1, MBL producing (carbapenem resistant) strain, cation adjusted Mueller-Hinton + human Apo-transferrin, 5×10^5 cfu/mL, read-out: Minimum Inhibitory Concentration (MIC)
Method: as §4, §5, §6, §7

[11] = system: Pseudomonas aeruginosa SR24; experiment: as above; conditions: P. aeruginosa SR24, ceftazidime sensitive strain, cation adjusted Mueller-Hinton + human Apo-transferrin, 5×10^5 cfu/mL, read-out: Minimum Inhibitory Concentration (MIC)
Method: as §4, §5, §6, §7

[12] = system: Pseudomonas aeruginosa SR27060; experiment: as above; conditions: P. aeruginosa SR27060, IMP-1, MBL producing (carbapenem resistant) strain, cation adjusted Mueller-Hinton + human Apo-transferrin, 5×10^5 cfu/mL, read-out: Minimum Inhibitory Concentration (MIC)
Method: as §4, §5, §6, §7

[13] = system: Acinetobacter baumannii SR24396; experiment: as above; conditions: A. baumannii SR24396, cation adjusted Mueller-Hinton + human Apo-transferrin, 5×10^5 cfu/mL, read-out: Minimum Inhibitory Concentration (MIC)
Method: as §4, §5, §6, §7

Row | SMILES | MIC [1] [µg/mL] | MIC [2] [µg/mL] | MIC [3] [µg/mL] | MIC [4] [µg/mL] | MIC [5] [µg/mL] | MIC [6] [µg/mL] | MIC [7] [µg/mL] | MIC [8] [µg/mL] | MIC [9] [µg/mL] | MIC [10] [µg/mL] | MIC [11] [µg/mL] | MIC [12] [µg/mL] | MIC [13] [µg/mL]
1 | CCN1CCN(C(=O)N[C@@H](C(=O)N[C@@H]2C(=O)N3C(C(=O)[O-])=C(C[N+]4(CCNC(=O)c5ccc(O)c(O)c5Cl)CCCC4)CS[C@H]23)c2ccccc2)C(=O)C1=O [Compound I-1] | 1 (≈ 1.25 µM) | 0.5 (≈ 0.626 µM) | 0.063 (≈ 0.0789 µM) | 0.5 (≈ 0.626 µM) | 8 (≈ 10 µM) | 4 (≈ 5.01 µM) | 0.5 (≈ 0.626 µM) | 2 (≈ 2.51 µM) |  |  |  |  | 
2 | Nc1nc(C(=CCC(=O)[O-])C(=O)N[C@@H]2C(=O)N3C(C(=O)[O-])=C(C[N+]4(CCNC(=O)c5ccc(O)c(O)c5Cl)CCCC4)CS[C@H]23)cs1.[Na+] [Compound I-8] | 0.5 | 4 | 0.25 | 2 |  |  | 0.25 | 4 |  |  |  |  | 
3 | CC(C)(O/N=C(\C(=O)N[C@@H]1C(=O)N2C(C(=O)[O-])=C(C[N@+]34CCC[C@H]3CN(C(=O)c3ccc(O)c(O)c3Cl)CC4)CS[C@H]12)c1ccc(O)cc1)C(=O)[O-].[Na+] [Compound I-15] |  |  |  |  |  |  |  |  | 32 | 0.5 | 0.5 | 2 | 4
4 | CC(C)(O/N=C(\C(=O)NC1C(=O)N2C(C(=O)O)=C(C[N+]3(CCNC(=O)c4ccc(O)c(O)c4Cl)CCCC3)CS[C@H]12)c1ccc(O)c(F)c1)C(=O)[O-] (some centres unmarked) [Compound I-17] | 4 (≈ 5.23 µM) |  | 0.25 (≈ 0.327 µM) | 1 (≈ 1.31 µM) |  |  | 1 (≈ 1.31 µM) | 2 (≈ 2.62 µM) |  |  |  |  | 
5 | CCN1CCN(C(=O)N[C@@H](C(=O)N[C@@H]2C(=O)N3C(C(=O)[O-])=C(C[N@+]4(C)[C@@H]5CC[C@H]4C[C@@H](NC(=O)c4ccc(O)c(O)c4Cl)C5)CS[C@H]23)c2ccccc2)C(=O)C1=O [Compound I-18] |  |  |  |  |  |  |  |  | 2 | 4 | 0.125 | 2 | 0.25
6 | CCN1CCN(C(=O)N[C@@H](C(=O)N[C@@H]2C(=O)N3C(C(=O)[O-])=C(C[N+]45CCC(CNC(=O)c6ccc(O)c(O)c6Cl)(CC4)CC5)CO[C@H]23)c2ccccc2)C(=O)C1=O [Compound I-23] | 16 (≈ 19.8 µM) | 0.5 (≈ 0.619 µM) | 0.5 (≈ 0.619 µM) | 4 (≈ 4.95 µM) |  |  | 1 (≈ 1.24 µM) | > 64 |  |  |  |  | 

From patent US9085589B2, “Cephem derivative” (SHIONOGI & CO., LTD., priority 2010, dated 2015)
